Positions of bridges follow the written chain, without caps; N, C: chain ends. Non-standard residues stand in square brackets, D forms with d. Residues, ends and D or L forms follow the SMILES beside them. αMeL = CC(C)C[C@](C)(N)C(=O)O; Nle = CCCC[C@H](N)C(=O)O; Aib = CC(C)(N)C(=O)O

The target in one series is T1, human GLP2 receptor (Homo sapiens, UniProt O95838).
T1 construct: expressed in transfected cells; host or cells: HEK cells, BacMam virus transduction
T1 sequence (O95838 1-553): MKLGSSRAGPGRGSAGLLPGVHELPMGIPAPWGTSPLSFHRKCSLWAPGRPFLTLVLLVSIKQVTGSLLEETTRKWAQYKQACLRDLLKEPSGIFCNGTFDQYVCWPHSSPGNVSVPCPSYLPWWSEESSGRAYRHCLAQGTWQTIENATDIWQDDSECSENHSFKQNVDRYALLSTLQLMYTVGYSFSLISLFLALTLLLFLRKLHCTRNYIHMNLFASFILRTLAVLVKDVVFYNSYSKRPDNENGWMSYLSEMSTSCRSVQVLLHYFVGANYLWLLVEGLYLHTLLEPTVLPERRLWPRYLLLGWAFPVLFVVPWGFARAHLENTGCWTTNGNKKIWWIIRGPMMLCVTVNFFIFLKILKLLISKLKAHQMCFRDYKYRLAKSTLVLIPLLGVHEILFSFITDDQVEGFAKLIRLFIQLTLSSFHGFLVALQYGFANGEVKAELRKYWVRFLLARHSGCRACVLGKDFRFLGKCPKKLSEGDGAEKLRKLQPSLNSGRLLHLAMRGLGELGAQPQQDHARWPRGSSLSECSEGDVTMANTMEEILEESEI
The series is described as follows: cAMP accumulation assay, functional agonism of human GLP2 receptor. In kind it is cell-based. The following applies: HEK cells infected with human GLP2 receptor BacMam virus, HTRF cAMP; for Emax: HEK293, read-out: Human GLP-2R agonist cAMP Emax. In a few lines:
(§1)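 Frozen HEK cells, previously BacMam-infected 24 h to express either receptor, are stimulated for 45 min at 37° C in IBMX-containing (0.5 mM) HBSS. The reaction is then terminated with HTRF reagents in lysis buffer.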
(In general: cAMP levels reflect the balance of adenylyl cyclase and phosphodiesterase activity.)

A further series addresses T2, human GLP1 receptor (Homo sapiens, UniProt P43220).
T2 construct: expressed in transfected cells; host or cells: HEK cells, BacMam virus transduction
The series is described as follows: cAMP accumulation assay, functional agonism of human GLP1 receptor. The note with it: HEK cells infected with human GLP1 receptor BacMam virus, HTRF cAMP; for Emax: HEK293, read-out: Human GLP-1R agonist cAMP Emax. The class given is cell-based. In a few lines:
as §1

In a further series the target is T3, mouse GLP2 receptor (Mus musculus, UniProt Q5IXF8).
T3 construct: expressed in transfected cells; host or cells: HEK cells, transient transfection with GeneJuice
T3 sequence (Q5IXF8 1-512): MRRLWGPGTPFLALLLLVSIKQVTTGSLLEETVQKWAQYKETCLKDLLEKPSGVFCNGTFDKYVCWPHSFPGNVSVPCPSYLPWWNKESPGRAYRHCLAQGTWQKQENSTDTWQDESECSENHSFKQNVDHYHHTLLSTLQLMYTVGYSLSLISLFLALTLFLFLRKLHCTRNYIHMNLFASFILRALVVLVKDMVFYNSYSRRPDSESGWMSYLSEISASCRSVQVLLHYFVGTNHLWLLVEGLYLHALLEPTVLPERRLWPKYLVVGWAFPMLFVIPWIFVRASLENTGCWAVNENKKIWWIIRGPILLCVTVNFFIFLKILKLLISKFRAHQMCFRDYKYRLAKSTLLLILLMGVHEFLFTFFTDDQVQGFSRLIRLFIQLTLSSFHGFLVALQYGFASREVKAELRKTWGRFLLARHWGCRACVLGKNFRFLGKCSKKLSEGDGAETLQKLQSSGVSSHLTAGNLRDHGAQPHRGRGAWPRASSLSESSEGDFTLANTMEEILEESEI
The series is described as follows: cAMP accumulation assay, functional agonism of mouse GLP2 receptor. In kind it is cell-based. The note with it: HEK cells transiently transfected with mouse GLP2 receptor, HTRF cAMP; for Emax: HEK293, read-out: Mouse GLP-2R agonist cAMP Emax. In a few lines:
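Transiently transfected HEK cells (24 h, frozen, 8000/well) in HBSS with 0.5 mM IBMX exposed to compound concentration series for 45 min at 37 °C. cAMP measured by HTRF after lysis and 1 h at RT; pEC50 from four-parameter concentration-response fit.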

Series [1] in a line: Stability of peptides in Fasted-State Simulated Intestinal Fluid (FaSSIF). The class given is in vitro ADME. The following applies: FaSSIF with 10 mg/ml pancreatin, 37° C.
Method: Stability of peptides was tested in Fasted-State Simulated Intestinal Fluid (FaSSIF) prepared according to manufacturer's protocol (Biorelevant, art.no. FFF01, pH 6.5). […] FaSSIF was pre-incubated for 15 min at 37° C. and spiked with test and reference item working solutions. Experiments were conducted in duplicate in a non-serial manner. The total incubation volume per replicate was 150 μl. Sampling time points for test items were 0, 0.5, 2, 5, 10, 15 and 30 min. All samples and calibration standards (prepared in FaSSIF) were precipitated by addition of 300 μl precipitant (ACN / 2% acetic acid / 0.2% HFBA, (precipitation reagent, PR)) containing internal standard (ISTD) to 150 μl sample. After incubation for 1 h at room temperature all samples were centrifuged for 10 min at 2,200×g (room temperature).
Series [2] in a line: Stability of peptides in Fasted-State Simulated Gastric Fluid (FaSSGF). The class given is in vitro ADME. The note with it: FaSSGF with 0.1 mg/ml pepsin; t=30 mins, 37° C., pH 1.6, 0.1 mg/ml pepsin.
Method: Stability of peptides was tested in Fasted-State Simulated gastric Fluid (FaSSGF) prepared according to manufacturer's protocol (Biorelevant, art. no. FFF01). […] FaSSGF was pre-incubated for 15 min at 37° C. and spiked with test and reference item working solutions. Experiments were conducted in duplicate in a non-serial manner. The total incubation volume per replicate was 150 μl. […] All samples and calibration standards (prepared in FaSSGF) were precipitated by addition of 300 μl precipitant (ACN / 2% acetic acid / 0.2% HFBA, (precipitation regent, PR)) containing internal standards (ISTD) to 150 μl sample. After incubation for 1 h at room temperature all samples were centrifuged for 10 min at 2,200×g (room temperature).
Series [3] can be described thus: Stability of peptides in rat intestinal fluid (ratIF). The note with it: Sprague Dawley, undiluted rat small intestinal fluid (ratIF).

T2 sequence (P43220 24-463): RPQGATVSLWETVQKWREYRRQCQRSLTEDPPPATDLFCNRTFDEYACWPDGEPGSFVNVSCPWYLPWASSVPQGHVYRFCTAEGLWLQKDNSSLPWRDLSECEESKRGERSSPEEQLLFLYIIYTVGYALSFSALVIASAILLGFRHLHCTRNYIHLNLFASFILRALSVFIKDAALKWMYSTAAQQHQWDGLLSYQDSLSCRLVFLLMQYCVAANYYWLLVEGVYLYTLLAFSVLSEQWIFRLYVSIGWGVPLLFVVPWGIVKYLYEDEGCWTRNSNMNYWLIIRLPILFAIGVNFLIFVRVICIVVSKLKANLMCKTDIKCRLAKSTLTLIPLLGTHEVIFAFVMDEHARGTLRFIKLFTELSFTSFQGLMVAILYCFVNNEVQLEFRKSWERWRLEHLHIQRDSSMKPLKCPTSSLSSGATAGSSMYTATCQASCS

For orientation: Emax means the size of the effect at its maximum, as opposed to the concentration needed. A word on the fraction remaining: it is what is left of the initial amount, in per cent. Take `CCCC[C@H](NC(=O)[C@H](CCC(=O)O)NC(=O)[C@@H]1CC(=O)NCCCC[C@H](NC(=O)[C@H](CC(=O)O)NC(=O)C(C)(C)NC(=O)[C@@H](N)Cc2c[nH]cn2)C(=O)N[C@@H](CO)C(=O)N[C@@H](Cc2ccccc2)C(=O)N[C@@H](CO)C(=O)N1)C(=O)N[C@H](Cc1ccccc1)C(=O)N[C@H](C(=O)N[C@@](C)(CC(C)C)C(=O)N[C@@H](CC(C)C)C(=O)N[C@@H](CC(=O)O)C(=O)N[C@H]1CCC(=O)NCCCC[C@@H](C(=O)N[C@@H](CC(=O)O)C(=O)N[C@@H](Cc2ccccc2)C(=O)N[C@H](C(=O)N[C@H]2CCC(=O)NCCCC[C@@H](C(=O)N[C@H](C(=O)N[C@@H](CCCCN)C(=O)N3CCC[C@H]3C(N)=O)[C@@H](C)O)NC(=O)[C@H]([C@@H](C)CC)NC(=O)[C@H](CC(C)C)NC(=O)[C@H](Cc3c[nH]c4ccccc34)NC2=O)[C@@H](C)CC)NC(=O)[C@H](C)NC(=O)[C@H](C)NC(=O)[C@H](CCCCN)NC1=O)[C@@H](C)O` [Example 30] (H-H[Aib]DKSFSDE[Nle][dF]T[αMeL]LDEKAAKDFIEWLIKTKP-NH2; lactam 4-8, 16-20, 24-28; N-terminus and C-terminus assumed): the values for the Emax on human GLP2 receptor, at human GLP1 receptor and on mouse GLP2 receptor were 104%, 96.7% and 101%, respectively. The fraction remaining at 0.5 h in series [1] (t=30 mins, pH 6.5, 10 mg/ml pancreatin) was 51.1%; in series [2] it was 100%.

As for `CCCC[C@H](NC(=O)[C@H](CCC(=O)O)NC(=O)[C@H](CC(=O)O)NC(=O)[C@H](CO)NC(=O)[C@H](Cc1ccccc1)NC(=O)[C@H](CO)NC(=O)CNC(=O)[C@H](CC(=O)O)NC(=O)C(C)(C)NC(=O)[C@@H](N)Cc1c[nH]cn1)C(=O)N[C@H]1CC(=O)NCCCC[C@@H](C(=O)N[C@@H](CC(C)C)C(=O)N[C@@H](CCCCN)C(=O)N[C@@H](C)C(=O)N[C@@H](C)C(=O)N[C@@H](CCCCN)C(=O)N[C@@H](CC(=O)O)C(=O)N[C@@H](Cc2ccccc2)C(=O)N[C@H](C(=O)N[C@@H](CC(N)=O)C(=O)N[C@@H](Cc2c[nH]c3ccccc23)C(=O)N[C@@H](CC(C)C)C(=O)N[C@H](C(=O)N[C@@H](CCC(N)=O)C(=O)N[C@H]2CCCCNC(=O)CC[C@@H](C(N)=O)NC(=O)[C@H]([C@@H](C)O)NC(=O)[C@H]([C@@H](C)CC)NC(=O)[C@H](CCCCN)NC2=O)[C@@H](C)CC)[C@@H](C)CC)NC(=O)[C@H](CC(C)C)NC(=O)[C@H]([C@@H](C)CC)NC(=O)[C@H]([C@@H](C)O)NC1=O` [Example 112] (H-H[Aib]DGSFSDE[Nle]DTILKLKAAKDFINWLIQKKITE-NH2; lactam 11-15, 29-33 (inferred); C-terminus assumed), the Emax on human GLP2 receptor is 102%; on human GLP1 receptor, 92.6%; on mouse GLP2 receptor, 99.7%. Moreover, the EC50 on human GLP2 receptor (read-out: Human GLP-2R agonist cAMP pEC50 (converted)) was 0.158 nM; at human GLP1 receptor (read-out: Human GLP-1R agonist cAMP pEC50 (converted)) it was 10 nM; on mouse GLP2 receptor (read-out: Mouse GLP-2R agonist cAMP pEC50 (converted)), 6.31 nM. The share remaining at 0.25 h in series [1] (FaSSIF pH 6.5 with 10 mg/ml pancreatin, t = 15 mins) was 40.7%; in series [3], 24.5%.

Values taken from patent publication US20240270809A1, “ORAL GLP RECEPTOR AGONISTS” (priority 2020, published 2024).
